Read-outs that look alike come from different tables or passages of the source.
How the values were obtained:
[1] = Population pharmacokinetic analysis of total plasma caspofungin in PICU patients (final two-compartment model, NONMEM, n = 29, 138 samples); type: in vivo, human (critically ill Chinese children); details: for AUCss,24h, range / AUC(0-t): Bayesian posterior estimates; for AUC(0-t): plasma, iv, read-out: AUCss,24h, median
Procedure: (§1) A prospective clinical study was conducted among pediatrics in PICU from Children’s Hospital of Fudan University from 1 November 2022 to 30 December 2024. Children aged 3 months to 18 years who were admitted to PICU and received caspofungin therapy were eligible for inclusion. The study population encompassed critically ill children, including but not limited to those with liver insufficiency, hypoproteinemia, ECMO treatment, continuous renal replacement therapy (CRRT), or sepsis. Eligible subjects were administered a once-daily, 1-h intravenous infusion of caspofungin, following a body surface area (BSA)-based dosage regimen: a loading dose (LD) of 70 mg/m² (not to exceed 70 mg) on the first day, followed by 50 mg/m² (not exceed 70 mg) for maintenance dose (MD). BSA was calculated using the Mosteller formula: […] ([14]). All participants were provided written consent prior to participating in the study (US Clinical Trials, NCT04961593). Demographic and baseline clinical laboratory data were collected from the medical records, including age, sex, body weight, height, BSA, liver function, renal function, and various biomarkers reflecting immune system status. Information on bacterial cultures was also collected from microbiological laboratory reports. The biochemical measurements were derived from the most recent clinical laboratory results available within 7 days prior to the first caspofungin administration, reflecting the patient’s baseline physiological status.
Total caspofungin plasma concentrations were quantified using a liquid chromatography tandem mass spectrometry (LC-MS/MS) method. Blood samples were collected with EDTA-K2 as anticoagulant, and plasma was obtained by centrifugation at 4,000 g for 5 min and stored at −80°C until analysis, which would be performed within 30 days. The analysis was performed using the LC-40AD chromatographic system (Shimazu, Tokyo, Japan) combined with a 6500+ Triple Quad mass spectrometry system (AB Sciex, Framingham, USA). The separation is achieved on a Kinetex C18 column (2.1 × 50 mm, 2.6 μm) using a mobile phase composed of buffer (0.1% [vol/vol] formic acid and 5 mM ammonium acetate) and methanol (0.1% [vol/vol] formic acid). A volume of 40 μL of each plasma sample was precipitated with 260 μL of methanol with 0.4% formic acid. After centrifugation, 150 μL of the supernatants was mixed with 150 μL of water, and a volume of 1 μL of mixture was injected into the chromatographic system. The calibration range of caspofungin was linear over the range of 0.05 to 50 μg/mL with a lower limit of quantification (LLOQ) of 0.05 μg/mL. The samples with concentration that exceeded the upper limit were diluted into half by using blank plasma sample. All the analysis run met the requirement of M10 guideline for bioanalytical method validation and study sample analysis ([15]).
(§2) This study incorporated data from two study stages: the intensive sampling stage, followed by a sparse sampling stage (Fig. S1). In the first stage, the sampling time points were scheduled at pre-dose, 1, 2, 4, 8 h (if feasible) and 16 h (if feasible) following the most recent dose (the sixth administration after the first dose). The optimal sparse sampling design was then conducted to minimize the number of sampling points based on the defined constraint conditions. The designed sparse sampling time windows were pre-dose (0–1 h), 0.5–1.5, 6–7, and 23–24 h after the prior dose (the sixth administration after the first dose). The detailed optimal design process was described in the Supplemental material.
The PopPK model was developed using the non-linear mixed-effects modeling software NONMEM (version 7.5, ICON Development Solutions, Ellicott City, Maryland) with the first-order conditional estimation with interaction (FOCE-I) algorithm. […]

[2] = First-stage population pharmacokinetic model from intensive sampling (n = 14), used for optimal sampling design; type: in vivo, human (critically ill children)
Procedure: as §2
During the optimized sampling process, explicit constraint conditions were defined. In the second phase of our study, approximately 40 participants were to be recruited to receive a daily 1-hour intravenous infusion of caspofungin, with a BSA-based dosing strategy. Sampling was planned to take place within one single day after reaching steady-state levels. Given that the study subjects were pediatric patients, we aimed to minimize the number of sampling points.
Design software tools, including $DESIGN option in NONMEM and PopED (version 0.6.0, R package), were utilized to explore design elements such as sampling size, and sampling times. These tools evaluated uncertainties in PK parameter estimates based on the current sampling scheme and population pharmacokinetic (PPK) model. The designs were evaluated to ensure the precise estimation of typical PK parameters, defined as a relative standard error (RSE) of less than 50%.
Figure S1. Study flow diagram. In the first stage of the study, a population pharmacokinetic model was developed based on intensive sampling data collected from the prospective clinical study conducted among pediatrics with a small sample size in ICU. Secondly, design software tools, including $DESIGN in NONMEM and PopED, were utilized to optimize sampling design. During the third phase in our study, the optimized sampling scheme would be applied to a larger-scale study.

[3] = system: positive fungal culture (C. parapsilosis, C. albicans, C. tropicalis, C. guilliermondii); test: Fungal culture conversion during caspofungin therapy; type: in vivo, human (critically ill children); details: thirteen patients with positive fungal culture during caspofungin infusion
Procedure: as §1, with “The biochemical measurements were derived from the most recent clinical laboratory results available within 7 days prior to the first caspofungin administration, reflecting the patient’s baseline physiological status.” left out

[4] = cited from earlier work
Source text: Our results are consistent with three published pediatric PopPK studies that also employed a two-compartment model ([25][–][27]). In contrast, one other pediatric study employed a one-compartment model, probably due to its sparse PK data (48 subjects and 139 observations) ([28]). […] The b ... || Previous studies involving pediatric populations typically included body size on PK parameters. Among them, three studies ([25], [26], [28]) included BSA as a significant covariate on CL and V1 while one study ([27]) emphasized the effect of body weight. In our study, allometric BSA-based allometric scaling yielded lower OFV and AIC compared with weight, LBW, and FFM. The estimated BSA exponent for CL varied considerably across studies, likely reflecting differences in study populations.

[5] = published pediatric PK estimates

CC[C@H](C)C[C@H](C)CCCCCCCCC(=O)N[C@H]1C[C@@H](O)[C@@H](NCCN)NC(=O)[C@@H]2[C@@H](O)CCN2C(=O)[C@H]([C@H](O)CCN)NC(=O)[C@H]([C@H](O)[C@@H](O)c2ccc(O)cc2)NC(=O)[C@@H]2C[C@@H](O)CN2C(=O)[C@H]([C@@H](C)O)NC1=O [caspofungin]
AUCss,24h, range ([1]; ECMO group, n = 4): 17.20 to 176.04 µg·h/mL
AUCss,24h, range ([1]; non-ECMO group, n = 25): 53.18 to 380.95 µg·h/mL
Increase in V1 associated with ECMO ([1]; final PopPK model): 18.2 fold
Q (inter-compartment exchange rate), estimate ([1]; final PopPK model): 1.01 L/h
V2 (peripheral volume), estimate ([1]; final PopPK model): 1.63 L
V2, bootstrap (n = 1,000) median [95% CI] ([1]; final PopPK model, bootstrap n = 1,000): 1.89 [1.20–4.29] L
V1 (volume of the central compartment), estimate ([1]; final PopPK model, scaled to 0.79 m^2 (BSA exponent 1), without ECMO): 2.22 L
AUC(0-t) ([1]; human, ECMO group, n = 4): 117 µg·h/mL
AUC(0-t) ([1]; human, non-ECMO group, n = 25): 194 µg·h/mL
clearance ([1]; human, final PopPK model, typical value scaled to a 0.79 m^2 individual (BSA exponent 0.66), 1-h iv infusion once daily, total plasma, LC-MS/MS, n = 29, read-out: CL, estimate (converted)): 3.27 mL/min
BSA-normalized CL ([1]; this study, final PopPK model): 0.248 L/h/m^2
BSA-normalized V1 ([1]; this study, final PopPK model): 2.81 L/m^2
Elimination rate constant (ke) ([1]; this study, final PopPK model): 0.088 h⁻¹
The effect of AST on Q, final estimate ([2]; exponent on AST/52.5): 0.898
clearance ([2]; human, plasma, iv, n = 14, CL = 0.477 x (weight/70)^0.75, read-out: CL, final estimate (converted)): 7.95 mL/min
Q, final estimate ([2]; n = 14, Q = 0.512 x (weight/70)^0.75 x (AST/52.5)^0.898): 0.512 L/h
V1, final estimate ([2]; n = 14, V1 = 11.8 x (weight/70)^1): 11.8 L
V2, final estimate ([2]; n = 14, V2 = 19.2 x (weight/70)^1): 19.2 L
Culture conversion in patients with positive fungal culture [3]: all of them eventually achieved successful culture conversion to negative
Elimination rate constant (ke), median ([4]; other four pediatric studies): 0.0875 h⁻¹
Elimination rate constant (ke), range ([4]; other four pediatric studies): 0.074 to 0.101 h⁻¹
BSA-normalized clearance, median [4, 5]: 0.208 L/h/m^2
BSA-normalized clearance, range [4, 5]: 0.126–0.21 L/h/m^2
BSA-normalized volume of distribution (V1), median [4, 5]: 2.19 L/m^2
BSA-normalized volume of distribution (V1), range [4, 5]: 1.72–2.62 L/m^2
